Laboratory results taken from the NIST ThermoML archive (doi:10.1021/je060353z).
Several values for one entry are separate records, joined by “and”; a condition that tells them apart may be missing. Identical values can stand only once. Numbers after ± are expanded uncertainties.

What was measured:
[1] = 101 kPa, Liquid
[2] = xn = mol fraction of the nth substance listed; details: 101 kPa, Liquid

Clc1ccccc1 [chlorobenzene]
[1]
Details | mass density | speed of sound [m/s] | viscosity [mPa·s]
298.15 K | 1100.97 ± 0.34 kg/m3 and 1100.67 ± 0.34 kg/m3 | 1268 ± 1.4 | 0.757 ± 0.014
303.15 K | 1095.1 ± 0.33 kg/m3 | 1249.4 ± 1.4 | 0.714 ± 0.014
308.15 K | 1089.08 ± 0.32 kg/m3 | 1230.9 ± 1.4 | 0.677 ± 0.014
313.15 K | 1083.66 ± 0.31 kg/m3 | 1212.6 ± 1.4 | 0.617 ± 0.013

CCCCCCCCCCO [decan-1-ol]
[1]
Details | mass density [kg/m3] | speed of sound [m/s] | viscosity [mPa·s]
298.15 K | 826.762 ± 0.43 | 1380 ± 1.5 | 11.83 ± 0.1
303.15 K | 822.853 ± 0.43 | 1365 ± 1.5 | 9.754 ± 0.087
308.15 K | 819.427 ± 0.44 | 1346.1 ± 1.4 | 8.135 ± 0.074
313.15 K | 815.983 ± 0.45 | 1329.3 ± 1.4 | 6.842 ± 0.063

CCCCCCCO [heptan-1-ol]
[1]
Details | mass density [kg/m3] | speed of sound [m/s] | viscosity [mPa·s]
298.15 K | 818.732 ± 0.44 | 1327.3 ± 1.4 | 5.944 ± 0.056
303.15 K | 815.287 ± 0.45 | 1313.6 ± 1.4 | 5.069 ± 0.049
308.15 K | 811.737 ± 0.45 | 1293.9 ± 1.4 | 4.333 ± 0.043
313.15 K | 808.162 ± 0.46 | 1277.2 ± 1.4 | 3.726 ± 0.038

CCCCCCO [hexan-1-ol]
[1]
Details | mass density [kg/m3] | speed of sound [m/s] | viscosity [mPa·s]
298.15 K | 815.23 ± 0.45 | 1304.7 ± 1.4 | 4.594 ± 0.045
303.15 K | 812.118 ± 0.45 | 1287.9 ± 1.4 | 3.887 ± 0.039
308.15 K | 808.482 ± 0.46 | 1271.1 ± 1.4 | 3.359 ± 0.035
313.15 K | 804.811 ± 0.46 | 1254.5 ± 1.4 | 2.914 ± 0.031

CCCCCCCCCO [nonan-1-ol]
[1]
Details | mass density [kg/m3] | speed of sound [m/s] | viscosity [mPa·s]
298.15 K | 824.478 ± 4 | 1365.5 ± 5.2 | 9.715 ± 0.26
303.15 K | 821.044 ± 4 | 1353.6 ± 5.2 | 7.927 ± 0.21
308.15 K | 817.582 ± 4 | 1331.8 ± 5.2 | 6.664 ± 0.18
313.15 K | 814.098 ± 4 | 1315 ± 5.2 | 5.645 ± 0.15

CCCCCCCCCO [nonan-1-ol] + Clc1ccccc1
[2]
Details | mass density [kg/m3] | speed of sound [m/s] | viscosity [mPa·s]
298.15 K, x2 = 0 | 824.478 ± 4 | 1365.5 ± 5.2 | 9.715 ± 0.26
298.15 K, x2 = 0.1529 | 850.648 ± 3.2 | 1350.5 ± 4.5 | 6.576 ± 0.15
298.15 K, x2 = 0.3008 | 879.504 ± 2.5 | 1333.3 ± 3.9 | 4.488 ± 0.092
298.15 K, x2 = 0.4379 | 910.112 ± 1.8 | 1316.2 ± 3.3 | 3.135 ± 0.057
298.15 K, x2 = 0.5505 | 938.617 ± 1.4 | 1302.2 ± 2.9 | 2.329 ± 0.039
298.15 K, x2 = 0.6413 | 964.273 ± 1 | 1291.1 ± 2.5 | 1.828 ± 0.029
298.15 K, x2 = 0.7273 | 991.186 ± 0.73 | 1281.2 ± 2.2 | 1.455 ± 0.023
298.15 K, x2 = 0.8031 | 1017.42 ± 0.55 | 1274 ± 1.9 | 1.192 ± 0.019
298.15 K, x2 = 0.8744 | 1044.71 ± 0.44 | 1269 ± 1.7 | 0.999 ± 0.017
298.15 K, x2 = 0.937 | 1071.14 ± 0.38 | 1267.1 ± 1.5 | 0.864 ± 0.015
303.15 K, x2 = 0 | 821.044 ± 4 | 1353.6 ± 5.2 | 7.927 ± 0.21
303.15 K, x2 = 0.1529 | 846.995 ± 3.2 | 1332.6 ± 4.5 | 5.56 ± 0.13
303.15 K, x2 = 0.3008 | 875.625 ± 2.4 | 1315.8 ± 3.9 | 3.876 ± 0.08
303.15 K, x2 = 0.4379 | 906.014 ± 1.8 | 1299.5 ± 3.3 | 2.752 ± 0.051
303.15 K, x2 = 0.5505 | 934.309 ± 1.4 | 1286 ± 2.8 | 2.07 ± 0.035
303.15 K, x2 = 0.6413 | 959.757 ± 1 | 1275.1 ± 2.5 | 1.646 ± 0.027
303.15 K, x2 = 0.7273 | 986.433 ± 0.73 | 1265.4 ± 2.2 | 1.325 ± 0.021
303.15 K, x2 = 0.8031 | 1012.44 ± 0.54 | 1257.7 ± 1.9 | 1.097 ± 0.018
303.15 K, x2 = 0.8744 | 1039.48 ± 0.43 | 1252 ± 1.7 | 0.924 ± 0.016
303.15 K, x2 = 0.937 | 1065.72 ± 0.37 | 1249.1 ± 1.5 | 0.802 ± 0.015
308.15 K, x2 = 0 | 817.582 ± 4 | 1331.8 ± 5.2 | 6.664 ± 0.18
308.15 K, x2 = 0.1529 | 843.265 ± 3.2 | 1315.5 ± 4.5 | 4.745 ± 0.11
308.15 K, x2 = 0.3008 | 871.65 ± 2.4 | 1298.5 ± 3.9 | 3.365 ± 0.07
308.15 K, x2 = 0.4379 | 901.759 ± 1.8 | 1281.7 ± 3.3 | 2.433 ± 0.045
308.15 K, x2 = 0.5505 | 929.764 ± 1.4 | 1267.7 ± 2.8 | 1.858 ± 0.032
308.15 K, x2 = 0.6413 | 954.969 ± 1 | 1256.3 ± 2.5 | 1.493 ± 0.025
308.15 K, x2 = 0.7273 | 981.393 ± 0.73 | 1246.3 ± 2.1 | 1.205 ± 0.02
308.15 K, x2 = 0.8031 | 1007.14 ± 0.53 | 1238.5 ± 1.9 | 1.014 ± 0.017
308.15 K, x2 = 0.8744 | 1033.95 ± 0.42 | 1233 ± 1.7 | 0.869 ± 0.016
308.15 K, x2 = 0.937 | 1059.96 ± 0.36 | 1231.5 ± 1.5 | 0.764 ± 0.015
313.15 K, x2 = 0 | 814.098 ± 4 | 1315 ± 5.2 | 5.645 ± 0.15
313.15 K, x2 = 0.1529 | 839.584 ± 3.1 | 1299.4 ± 4.5 | 4.074 ± 0.096
313.15 K, x2 = 0.3008 | 867.761 ± 2.4 | 1282 ± 3.9 | 2.935 ± 0.062
313.15 K, x2 = 0.4379 | 897.663 ± 1.8 | 1264.9 ± 3.3 | 2.152 ± 0.041
313.15 K, x2 = 0.5505 | 925.493 ± 1.4 | 1251 ± 2.8 | 1.658 ± 0.029
313.15 K, x2 = 0.6413 | 950.508 ± 1 | 1239.8 ± 2.5 | 1.346 ± 0.023
313.15 K, x2 = 0.7273 | 976.738 ± 0.73 | 1229.8 ± 2.1 | 1.094 ± 0.019
313.15 K, x2 = 0.8031 | 1002.28 ± 0.51 | 1221.8 ± 1.9 | 0.919 ± 0.016
313.15 K, x2 = 0.8744 | 1028.88 ± 0.41 | 1215.6 ± 1.6 | 0.775 ± 0.015
313.15 K, x2 = 0.937 | 1054.7 ± 0.35 | 1213.3 ± 1.5 | 0.676 ± 0.014

CCCCCCCCO [octan-1-ol] + Clc1ccccc1
[2], x2 = 0
Details | mass density [kg/m3] | speed of sound [m/s] | viscosity [mPa·s]
298.15 K | 821.826 ± 0.44 | 1347.8 ± 1.4 | 7.661 ± 0.07
303.15 K | 818.23 ± 0.44 | 1338 ± 10 | 6.402 ± 0.06
308.15 K | 814.737 ± 0.45 | 1314.3 ± 1.4 | 5.425 ± 0.052
313.15 K | 810.098 ± 0.45 | 1297.6 ± 1.4 | 4.628 ± 0.045
